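48-hour exposure; five concentrations; linearly interpolated endpoints. GI50: concentration for 50% inhibition of growth.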 The source made the active and inactive calls. Cut-off read from the data, not from the text of the source: active = GI50 up to about 1.1 µM and inactive = higher.
What was measured:
Assay in all cases: growth of human tumour cells (NCI), 48 h
786-0 = test system: 786-0
A498 = test system: A498
A549 = test system: A549
ACHN = test system: ACHN
CAKI-1 = test system: CAKI-1
CCRF-CEM = test system: CCRF-CEM
COLO 205 = test system: COLO 205
DLD-1 = test system: DLD-1
DMS-114 = test system: DMS-114
DMS-273 = test system: DMS-273
EKVX = test system: EKVX
HCC 2998 = test system: HCC 2998
HCT-116 = test system: HCT-116
HCT-15 = test system: HCT-15
HL-60 = test system: HL-60
HOP-18 = test system: HOP-18
HOP-62 = test system: HOP-62
HT-29 = test system: HT-29
IGROV-1 = test system: IGROV-1
K562 = test system: K562
KM-20L2 = test system: KM-20L2
KM12 = test system: KM12
LOX IMVI = test system: LOX IMVI
LXFL 529 = test system: LXFL 529
M14 = test system: M14
M19-MEL = test system: M19-MEL
MOLT-4 = test system: MOLT-4
Malme-3M = test system: Malme-3M
NCI-H226 = test system: NCI-H226
NCI-H23 = test system: NCI-H23
NCI-H460 = test system: NCI-H460
NCI-H522 = test system: NCI-H522
OVCAR-3 = test system: OVCAR-3
OVCAR-4 = test system: OVCAR-4
OVCAR-5 = test system: OVCAR-5
OVCAR-8 = test system: OVCAR-8
RPMI-8226 = test system: RPMI-8226
RXF 393 = test system: RXF 393
SF-268 = test system: SF-268
SF-295 = test system: SF-295
SK-MEL-28 = test system: SK-MEL-28
SK-MEL-2 = test system: SK-MEL-2
SK-MEL-5 = test system: SK-MEL-5
SK-OV-3 = test system: SK-OV-3
SN12C = test system: SN12C
SNB-19 = test system: SNB-19
SNB-75 = test system: SNB-75
SNB-78 = test system: SNB-78
SR = test system: SR
SW-620 = test system: SW-620
TK-10 = test system: TK-10
U-251 = test system: U-251
UACC-257 = test system: UACC-257
UACC-62 = test system: UACC-62
UO-31 = test system: UO-31
HOP-92 = test system: HOP-92
MCF7 = test system: MCF7
NCI/ADR-RES = test system: NCI/ADR-RES
SF-539 = test system: SF-539
XF498 = test system: XF498

Measured: GI50

COC(=O)C(=O)C1(CCC(C)=O)c2ccccc2-c2c(C)ccc(C)c21 (stereo unspecified)
32.6 µM: HCT-15
inactive: 786-0 64 µM | A498 55.7 µM | A549 46.5 µM | ACHN 46.7 µM | CAKI-1 31.4 µM | CCRF-CEM 37.1 µM | COLO 205 34.7 µM | DLD-1 50.1 µM | DMS-114 33.7 µM | DMS-273 31.6 µM | EKVX 31.4 µM | HCC 2998 87.5 µM | HCT-116 35.7 µM | HL-60 10.3 µM | HOP-18 56.4 µM | HOP-62 53 µM | HT-29 32.7 µM | IGROV-1 57.8 µM | K562 30.1 µM | KM-20L2 58.3 µM | KM12 43 µM | LOX IMVI 36.8 µM | LXFL 529 37.8 µM | M14 46.8 µM | M19-MEL 64 µM | MOLT-4 23.1 µM | Malme-3M 40.4 µM | NCI-H226 > 100 µM | NCI-H23 24.7 µM | NCI-H460 33 µM | NCI-H522 33.3 µM | OVCAR-3 32 µM | OVCAR-4 68.9 µM | OVCAR-5 > 100 µM | OVCAR-8 34.4 µM | RPMI-8226 26.2 µM | RXF 393 32.1 µM | SF-268 52.2 µM | SF-295 81.7 µM | SK-MEL-28 > 100 µM | SK-MEL-2 40.6 µM | SK-MEL-5 25.5 µM | SK-OV-3 84.1 µM | SN12C 69.2 µM | SNB-19 > 100 µM | SNB-75 53 µM | SNB-78 19 µM | SR 19.2 µM | SW-620 48.4 µM | TK-10 39.6 µM | U-251 41.8 µM | UACC-257 33 µM | UACC-62 7.53 µM | UO-31 25.4 µM

CC(NC(=O)C(C)NC(=O)C(N)CCP(C)(=O)O)C(=O)O (stereo unspecified)
> 100 µM: HCT-15
inactive: A498 > 100 µM | A549 > 100 µM | CAKI-1 > 100 µM | CCRF-CEM > 100 µM | COLO 205 > 100 µM | DLD-1 > 100 µM | DMS-273 > 100 µM | EKVX > 100 µM | HCC 2998 > 100 µM | HCT-116 > 100 µM | HL-60 > 100 µM | HOP-18 > 100 µM | HOP-62 > 100 µM | HOP-92 > 100 µM | HT-29 > 100 µM | IGROV-1 > 100 µM | K562 > 100 µM | KM-20L2 > 100 µM | KM12 > 100 µM | LOX IMVI > 100 µM | M19-MEL > 100 µM | MCF7 > 100 µM | MOLT-4 > 100 µM | Malme-3M > 100 µM | NCI-H226 > 100 µM | NCI-H23 > 100 µM | NCI-H460 > 100 µM | NCI-H522 > 100 µM | NCI/ADR-RES > 100 µM | OVCAR-3 > 100 µM | OVCAR-4 > 100 µM | OVCAR-5 > 100 µM | OVCAR-8 > 100 µM | RPMI-8226 > 100 µM | RXF 393 > 100 µM | SF-268 > 100 µM | SF-295 > 100 µM | SF-539 > 100 µM | SK-MEL-28 > 100 µM | SK-MEL-2 > 100 µM | SK-MEL-5 > 100 µM | SK-OV-3 > 100 µM | SN12C > 100 µM | SNB-19 > 100 µM | SNB-75 > 100 µM | SNB-78 > 100 µM | SW-620 > 100 µM | U-251 > 100 µM | UACC-257 > 100 µM | UACC-62 > 100 µM | UO-31 > 100 µM | XF498 > 100 µM

Clc1ccc(C(c2ccc(Cl)cc2)c2ccccn2)cc1
17.3 µM: HCT-15
inactive: 786-0 16.7 µM | A549 18.5 µM | ACHN 18.1 µM | CAKI-1 23.2 µM | CCRF-CEM 21.5 µM | DLD-1 20.8 µM | DMS-114 28.4 µM | EKVX 23 µM | HCC 2998 15.9 µM | HL-60 20.6 µM | HOP-18 24.8 µM | HOP-92 15.8 µM | HT-29 14.9 µM | IGROV-1 37.8 µM | K562 21.6 µM | KM-20L2 14.4 µM | KM12 19.1 µM | LOX IMVI 16.7 µM | LXFL 529 17.7 µM | M14 21.1 µM | M19-MEL 31.4 µM | MOLT-4 21.4 µM | Malme-3M 19.1 µM | NCI-H226 17.1 µM | NCI-H23 31.6 µM | NCI-H460 17.1 µM | NCI-H522 21.4 µM | OVCAR-3 > 10 µM | OVCAR-4 27.4 µM | OVCAR-5 14.9 µM | OVCAR-8 16.7 µM | RPMI-8226 28.8 µM | RXF 393 14.5 µM | SF-268 23.5 µM | SF-295 19.1 µM | SF-539 18.7 µM | SK-MEL-28 > 10 µM | SK-MEL-2 19 µM | SK-MEL-5 17.1 µM | SK-OV-3 34.6 µM | SN12C 17.3 µM | SNB-19 22.3 µM | SNB-75 44.9 µM | SNB-78 33.8 µM | SR 20.8 µM | SW-620 20.1 µM | TK-10 19.7 µM | U-251 17 µM | UACC-257 18.8 µM | UACC-62 16.4 µM | UO-31 16.5 µM | XF498 18.2 µM
